# Test results as given in patent US6346539B1, “Treatment of skin conditions” (BTG International Limited, priority 1998, dated 2002).
# Read-outs that look alike come from different tables or passages of the source.
# Legend:
# mouse melan-a cells = experiment: Melanocyte proliferant activity of piperine derivatives, SRB assay, 4 days, 10% FBS; assay type: cell-based; details: for activity at 1 µM / activity at 10 µM / activity at 25 µM / activity at 50 µM / activity at 100 µM: Mus musculus, Melan-a, 96 h; for Active at 10 μM? / More active than piperine at higher conc. (μM)? / Active at higher conc. (μM)?: overall summary; for More active than piperine at higher conc. (μM)?: concentrations at which more active than piperine; for Relative activity to piperine: (A-100) compound/(A-100) piperine; for Active at higher conc. (μM)?: concentrations at which active
# Procedure: The plates were incubated at 37° C. in a 10% CO2, 90% air humidified atmosphere for the stated length of time. At the end of the incubation, an SRB assay was performed. Briefly, cells attached to the bottom of the plate were fixed by addition of cold trichloroacetic acid (TCA, 4° C., Aldrich, Dorset, UK) on the top of the growth medium (final TCA 20% w/v). The plate was placed at 4° C. for 1 hour before being gently washed five times with tap water. It was allowed to dry in air, or aided with a hair dryer to speed up the drying process, then 50 μl of 4% w/v SRB dissolved in 1% acetic acid in water was added to each well for 30 min. At the end of the staining period, unbound SRB was removed by washing 4 times with 1% acetic acid. The plate was air dried again, and 150 μl of 10 mM aqueous Tris base (Sigma-Aldrich Co. Ltd, Irvine, UK) was added into each well to solubilize the cell-bound dye.
# Various piperine derivatives of formula (1) were synthesised and tested for melanocyte (mouse melan-a) proliferant activity in-vitro. Cells we re incubated with the test compound for 4 days, as previously for the mouse cells but with 10% FBS, after which the sulphorhodamine-B (SRB) assay was performed to determnine cell number SRB uptake was measured as optical density at 550 nm. The control assay was carried out on cells incubated without test compound. There were 2 or 3 series of experiments, each of which consisted of six replcate experiments.
# Percentage cell growth was obtained with a given compound calculated as (optical density in the presence of the compound/control optical density)×100.
# Melan-a cell proliferant activity for tested compounds was compared with that obtained with piperine. […] All figures are given with Standard Error of the Mean.
# melan-a cells = experiment: Dendricity of melan-a cells by observation under microscope; assay type: cell-based, mouse; set-up: key: +++: highly dendritic; ++: moderately dendritic; +: weakly dendritic; −: no effect
# Text: Effect on dendricity of melan-a cells by the test compounds was by observation under microscope. Dendricity is relevant to vitiligo since normal skin melanocytes have dendrites, but in vitiligo the melanocytes seem to lose these before they disappear from the patches.
# [1] = read-out: growth of melan-a cells as % of control, dose experiment
# [2] = 10 μM, read-out: growth of melan-a cells as % of control, dose experiment
# [3] = single concentration (10 μM), melan-a, ± SEM, read-out: Percentage cell growth (Repeated experiments)
# [4] = single concentration (10 μM), melan-a
Structure (SMILES),"""cross-over"" effect relative to piperine (mouse melan-a cells; 10 μM versus 50 μM)",activity at 1 µM (mouse melan-a cells; [1]) [%],activity at 10 µM (mouse melan-a cells; [2]) [%],activity at 25 µM (mouse melan-a cells; [1]) [%],activity at 50 µM (mouse melan-a cells; [1]) [%],activity at 10 µM (mouse melan-a cells; [3]) [%],Active at 10 μM? (mouse melan-a cells; melan-a),Stimulant activity (mouse melan-a cells; [4]),"Dendricity (melan-a cells; Table 7, 10 μM)",activity at 100 µM (mouse melan-a cells; [1]) [%],"Dentricity, dose experiment (melan-a cells; 1 μM)","Dentricity, dose experiment (melan-a cells; 10 μM)","Dentricity, dose experiment (melan-a cells; 50 μM)",More active than piperine at higher conc. (μM)? (mouse melan-a cells),Relative activity to piperine (mouse melan-a cells; 10 μM),Active at higher conc. (μM)? (mouse melan-a cells),"Dentricity, dose experiment (melan-a cells; 100 μM)","Dendricity (melan-a cells; Table 9, 10 μM)"
"O=C(/C=C/C=C/c1ccc2c(c1)OCO2)N1CCCC1 [RV-A01, 5-E,E-piperinoylpyrrolidine]",less active than piperine at 10 μM but more active at 50 μM,109 ± 7,122 ± 7,142 ± 21,186 ± 14,183 ± 34,Yes,Positive,+++,,,,,,,,,
"O=C(/C=C/C=C/c1ccc2c(c1)OCO2)N1CCOCC1 [RV-A02, 5-E,E-piperinoyl morpholine]",,125 ± 10,167 ± 17,171 ± 8,168 ± 12,,Yes,Positive,+++,,,,,,,,,
"O=C(/C=C/C=C/c1ccc2c(c1)OCO2)NCc1ccc2c(c1)OCO2 [RV-A04, 5-E,E-piperinoylpiperinolymine]",,101 ± 12,138 ± 10,,150 ± 15,,Yes^a,"Non- significant here, but positive in dose response test",+,71 ± 9,−,+,+,,,,,
"CCCCCCNC(=O)/C=C/C=C/c1ccc2c(c1)OCO2 [RV-A05, 5-E,E-piperinoylhexylamine]",,155 ± 9,188 ± 13,178 ± 18,178 ± 8,,Yes,Positive,+++,,,,,No,,,,
"CC(C)CNC(=O)/C=C/C=C/c1ccc2c(c1)OCO2 [RV-A06, Piperlonguminine]",,134 ± 7,188 ± 14,172 ± 15,135 ± 24,147 ± 66,Yes,Positive,+++,,,,,No,,,,
"CNC(=O)/C=C/C=C/c1ccc2c(c1)OCO2 [RV-A07, 5-E,E-piperinoylmethylamine]",,140 ± 12,170 ± 24,,71 ± 5,170 ± 24,Yes,Positive,++,46 ± 2,++,++,+,No,0.6,No,+,
"CCNC(=O)/C=C/C=C/c1ccc2c(c1)OCO2 [RV-A08, 5-E,E-piperinoylethylamine]",,139 ± 27,200 ± 14,,81 ± 12,200 ± 14,Yes,Positive,+++,62 ± 13,++,+++,+,No,0.73,No,+,
"CC(C)NC(=O)/C=C/C=C/c1ccc2c(c1)OCO2 [RV-A09, 5-E,E-piperinoylisopropylamine]",,187 ± 15,224 ± 19,,85 ± 5,224 ± 19,Yes,Positive,+++,42 ± 6,+++,+++,+,No,0.76,No,+,
"O=C(/C=C/C=C/c1ccc2c(c1)OCO2)NC1CCCCC1 [RV-A10, 5-E,E-piperinoyl cyclohexylamine]",,301 ± 20,308 ± 29,,155 ± 22,308 ± 29,Yes,Positive,+++,100 ± 13,+++,+++,+,,1.02,,+,
"CCCCNC(=O)/C=C/C=C/c1ccc2c(c1)OCO2 [RV-A11, 5-E,E-piperinoylbutylamine]",,189 ± 6,264 ± 21,,158 ± 20,264 ± 21,Yes,Positive,+++,84 ± 6,+++,+++,++,,0.66,,+,
"COC(=O)/C=C/C=C/c1ccc2c(c1)OCO2 [RV-AB1, 5-E,E-piperinic Acid Methyl Ester]",,125 ± 13,147 ± 16,,187 ± 12,,Yes,Positive,,171 ± 8,−,+,++,,,,++,++
"CCOC(=O)/C=C/C=C/c1ccc2c(c1)OCO2 [RV-AB2, 5-E,E-piperinic Acid Ethyl Ester]",,,,,,29 ± 9,No^c,Positive,,,,,,,,,,Toxic
"COC(=O)/C=C/c1ccc2c(c1)OCO2 [RV-BB1, 3-trans-benzo-1,3-dioxol-5-ylacrylic acid methyl ester]",,,,,,,No^b,Non- significant,,,,,,,,,,
